Laboratory results reported in ChEMBL document CHEMBL5365534, “Discovery of a Novel Ketohexokinase Inhibitor with Improved Drug Distribution in Target Tissue for the Treatment of Fructose Metabolic Disease” (J Med Chem, 2023).
Calls of active or inactive are those of the source. No cut-off for these calls is given here.

How the values were obtained:
Cytochrome P450 2C19 = Cytochrome P450 2C19 (Homo sapiens, UniProt P33261)
Description: Inhibition of CYP2C19 in human liver microsomes at 0.1 to 30 uM measured for 5 mins in presence of NADPH by LC-MS/MS analysis

in vitro [1] = settings: dog, liver microsomes
[2] = Drug metabolism in human hepatocytes assessed as oxidation/hydrogenation/decarboxylation metabolite at 10 uM measured upto 240 mins by LC-MS/MS analysis; type: ADME, cell-based, Hepatocyte; settings: 4 h
[3] = Volume of distribution at steady state in Beagle dog at 1 mg/kg, iv administered as single dose measured upto 24 hrs by LC-MS/MS analysis; type: ADME, organism-based, Canis lupus familiaris; settings: in vivo, read-out: Vdss
in vitro [4] = settings: mouse, hepatocytes
Rattus norvegicus = experiment: In vivo inhibition of KHK in 16 hr fasted Sprague-Dawley rat assessed as inhibition of metabolic clearance of fructose at 50 to 150 mg/kg, po pretreated for 1 hr followed fructose induction and measured after 0.5 to 3 hrs by ELISA method; type: functional, organism-based; settings: dose lower 50.0 mg/kg, dose upper […], time upper 4.0 hrs
Cytochrome P450 3A4 [5] = target: T1, Cytochrome P450 3A4 (Homo sapiens, UniProt P08684); experiment: Time dependent inhibition of CYP3A4 in human liver microsomes at 10 uM preincubated for 30 mins followed by substrate addition and measured after 15 mins in presence of NADPH by LC-MS/MS analysis; type: ADME, Microsome
Cytochrome P450 3A4 [6] = target: T1, Cytochrome P450 3A4
Description: Inhibition of CYP3A4 in human liver microsomes at 0.1 to 30 uM measured for 5 mins in presence of NADPH by LC-MS/MS analysis

[7] = Drug metabolism in mouse hepatocytes assessed as oxidation/hydrogenation/decarboxylation metabolite at 10 uM measured upto 240 mins by LC-MS/MS analysis; type: ADME, cell-based, Hepatocyte; settings: 4 h
Cytochrome P450 2D6 [8] = target: T2, Cytochrome P450 2D6 (Homo sapiens, UniProt P10635); experiment: Time dependent inhibition of CYP2D6 in human liver microsomes at 10 uM preincubated for 30 mins followed by substrate addition and measured after 15 mins in presence of NADPH by LC-MS/MS analysis; type: ADME, Microsome
[9] = Clearance in Sprague-Dawley rat at 10 mg/kg, iv administered as single dose measured upto 24 hrs by LC-MS/MS analysis; type: ADME, organism-based; settings: in vivo
[10] = Drug metabolism in dog hepatocytes assessed as glycine conjugation metabolite at 10 uM measured upto 240 mins by LC-MS/MS analysis; type: ADME, cell-based, Canis lupus familiaris, Hepatocyte; settings: 4 h
[11] = MRT (0 to t) in Beagle dog at 1 mg/kg, iv administered as single dose measured upto 24 hrs by LC-MS/MS analysis; type: ADME, organism-based, Canis lupus familiaris; settings: in vivo
[12] = Metabolic stability in human hepatocyte assessed as parent compound remaining at 10 uM measured after 4 hrs by LC-MS/MS analysis; type: ADME, cell-based; settings: hepatocytes, read-out: Stability
in vitro [13] = settings: human, Caco-2
Description: Apparent permeability of the compound across apical side to basolateral side in human Caco-2 cells at 10 uM incubated for 2 hrs by LC-MS/MS analysis

[14] = Metabolic stability in dog hepatocyte assessed as parent compound remaining at 10 uM measured after 4 hrs by LC-MS/MS analysis; type: ADME, cell-based, Canis lupus familiaris; settings: hepatocytes, read-out: Stability
Cytochrome P450 2D6 [15] = target: T2, Cytochrome P450 2D6
Description: Inhibition of CYP2D6 in human liver microsomes at 0.1 to 30 uM measured for 5 mins in presence of NADPH by LC-MS/MS analysis

[16] = Tmax in Sprague-Dawley rat at 10 mg/kg, po administered as single dose measured upto 24 hrs by LC-MS/MS analysis; type: ADME, organism-based; settings: in vivo
in vivo [17] = settings: Sprague-Dawley, rat, liver, po, 10 mg/kg
Description: Drug concentration in Sprague-Dawley rat liver at 10 mg/kg, po administered as single dose measured upto 24 hrs by LC-MS/MS analysis

in vivo [18] = settings: Sprague-Dawley, rat, heart, po, 10 mg/kg
Description: Drug concentration in Sprague-Dawley rat heart at 10 mg/kg, po administered as single dose measured upto 24 hrs by LC-MS/MS analysis

in vitro [19] = settings: human, hepatocytes
[20] = Drug metabolism in rat hepatocytes assessed as glycine conjugation metabolite at 10 uM measured upto 240 mins by LC-MS/MS analysis; type: ADME, cell-based, Hepatocyte; settings: 4 h
[21] = AUC (0 to infinity) in Beagle dog at 1 mg/kg, iv administered as single dose measured upto 24 hrs by LC-MS/MS analysis; type: ADME, organism-based, Canis lupus familiaris; set-up: time < 24 hrs, dose 1 mg/kg, route iv; settings: in vivo
PXR = target: T3, PXR (Homo sapiens, UniProt O75469); experiment: in vitro
T3 sequence (O75469 whole entry): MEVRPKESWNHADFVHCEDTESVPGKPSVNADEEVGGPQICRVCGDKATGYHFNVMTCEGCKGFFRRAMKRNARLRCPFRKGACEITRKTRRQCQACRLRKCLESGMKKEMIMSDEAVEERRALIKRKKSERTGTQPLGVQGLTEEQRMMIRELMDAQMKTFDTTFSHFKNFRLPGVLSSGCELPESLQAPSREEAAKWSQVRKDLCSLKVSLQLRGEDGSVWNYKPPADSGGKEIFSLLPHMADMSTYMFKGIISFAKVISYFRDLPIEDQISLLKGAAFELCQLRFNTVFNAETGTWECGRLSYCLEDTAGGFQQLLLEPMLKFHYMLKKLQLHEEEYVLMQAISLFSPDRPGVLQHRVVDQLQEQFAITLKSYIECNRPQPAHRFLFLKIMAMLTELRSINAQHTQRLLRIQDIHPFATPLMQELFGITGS
Description: Activation of PXR (unknown origin) at 30 uM relative to control

[22] = Elimination half life in Beagle dog at 1 mg/kg, iv administered as single dose measured upto 24 hrs by LC-MS/MS analysis; type: ADME, organism-based, Canis lupus familiaris; settings: in vivo, read-out: beta t1/2 (converted)
[23] = Drug metabolism in rat hepatocytes assessed as oxidation/hydrogenation/decarboxylation metabolite at 10 uM measured upto 240 mins by LC-MS/MS analysis; type: ADME, cell-based, Hepatocyte; settings: 4 h
[24] = AUC (0 to t) in Sprague-Dawley rat at 10 mg/kg, po administered as single dose measured upto 24 hrs by LC-MS/MS analysis; type: ADME, organism-based; set-up: time < 24 hrs, dose 10 mg/kg, route po; settings: in vivo
[25] = target: Sodium channel protein type 5 subunit alpha (Homo sapiens, UniProt Q14524)
Description: Inhibition of human Nav1.5 by manual-patch clamp assay

Cytochrome P450 1A2 = target: T4, Cytochrome P450 1A2 (Homo sapiens, UniProt P05177); experiment: Time dependent inhibition of CYP1A2 in human liver microsomes at 10 uM preincubated for 30 mins followed by substrate addition and measured after 15 mins in presence of NADPH by LC-MS/MS analysis; type: ADME, Microsome
T4 sequence (P05177 whole entry): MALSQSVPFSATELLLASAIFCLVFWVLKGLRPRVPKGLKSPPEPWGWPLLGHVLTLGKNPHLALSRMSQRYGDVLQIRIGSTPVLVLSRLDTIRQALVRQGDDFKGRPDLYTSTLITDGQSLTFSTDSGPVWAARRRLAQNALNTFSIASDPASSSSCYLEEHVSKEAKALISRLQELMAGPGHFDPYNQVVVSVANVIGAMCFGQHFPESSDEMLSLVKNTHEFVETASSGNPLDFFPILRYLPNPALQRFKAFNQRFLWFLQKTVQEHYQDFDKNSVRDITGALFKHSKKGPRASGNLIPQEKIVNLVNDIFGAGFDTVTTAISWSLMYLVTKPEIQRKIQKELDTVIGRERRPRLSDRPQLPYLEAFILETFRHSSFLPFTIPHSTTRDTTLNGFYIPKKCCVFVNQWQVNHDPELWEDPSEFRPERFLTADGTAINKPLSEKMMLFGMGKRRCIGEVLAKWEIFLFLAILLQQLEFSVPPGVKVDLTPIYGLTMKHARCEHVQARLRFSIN

T2 sequence (P10635 whole entry): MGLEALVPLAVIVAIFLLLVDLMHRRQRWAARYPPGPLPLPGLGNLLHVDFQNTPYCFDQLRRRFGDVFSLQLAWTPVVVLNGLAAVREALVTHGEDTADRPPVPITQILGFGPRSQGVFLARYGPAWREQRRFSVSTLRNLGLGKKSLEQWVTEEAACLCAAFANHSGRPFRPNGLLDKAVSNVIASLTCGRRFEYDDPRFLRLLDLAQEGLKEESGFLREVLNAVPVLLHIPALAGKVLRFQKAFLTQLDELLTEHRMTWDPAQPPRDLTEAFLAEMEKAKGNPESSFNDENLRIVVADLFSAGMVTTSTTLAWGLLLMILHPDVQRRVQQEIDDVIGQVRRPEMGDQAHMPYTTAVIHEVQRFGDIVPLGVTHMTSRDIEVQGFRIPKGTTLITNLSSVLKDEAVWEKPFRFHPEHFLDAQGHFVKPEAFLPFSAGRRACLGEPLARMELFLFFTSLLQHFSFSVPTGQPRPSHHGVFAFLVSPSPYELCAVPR
T1 sequence (P08684 whole entry): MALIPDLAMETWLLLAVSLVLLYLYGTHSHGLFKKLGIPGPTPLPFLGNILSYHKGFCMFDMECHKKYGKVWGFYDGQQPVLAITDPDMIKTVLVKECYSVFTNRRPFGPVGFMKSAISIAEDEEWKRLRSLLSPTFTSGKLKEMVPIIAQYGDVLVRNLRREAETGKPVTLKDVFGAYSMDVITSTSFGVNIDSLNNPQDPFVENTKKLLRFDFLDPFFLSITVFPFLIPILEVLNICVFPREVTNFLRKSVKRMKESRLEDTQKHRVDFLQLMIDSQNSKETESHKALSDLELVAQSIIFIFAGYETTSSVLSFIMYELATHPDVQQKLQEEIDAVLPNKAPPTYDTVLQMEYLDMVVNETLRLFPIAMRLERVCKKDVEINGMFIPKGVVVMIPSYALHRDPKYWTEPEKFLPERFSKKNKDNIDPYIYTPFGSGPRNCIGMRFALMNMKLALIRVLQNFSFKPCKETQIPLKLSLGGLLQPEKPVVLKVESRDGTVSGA
Chain of Sodium channel protein type 5 subunit alpha (Q14524 whole entry): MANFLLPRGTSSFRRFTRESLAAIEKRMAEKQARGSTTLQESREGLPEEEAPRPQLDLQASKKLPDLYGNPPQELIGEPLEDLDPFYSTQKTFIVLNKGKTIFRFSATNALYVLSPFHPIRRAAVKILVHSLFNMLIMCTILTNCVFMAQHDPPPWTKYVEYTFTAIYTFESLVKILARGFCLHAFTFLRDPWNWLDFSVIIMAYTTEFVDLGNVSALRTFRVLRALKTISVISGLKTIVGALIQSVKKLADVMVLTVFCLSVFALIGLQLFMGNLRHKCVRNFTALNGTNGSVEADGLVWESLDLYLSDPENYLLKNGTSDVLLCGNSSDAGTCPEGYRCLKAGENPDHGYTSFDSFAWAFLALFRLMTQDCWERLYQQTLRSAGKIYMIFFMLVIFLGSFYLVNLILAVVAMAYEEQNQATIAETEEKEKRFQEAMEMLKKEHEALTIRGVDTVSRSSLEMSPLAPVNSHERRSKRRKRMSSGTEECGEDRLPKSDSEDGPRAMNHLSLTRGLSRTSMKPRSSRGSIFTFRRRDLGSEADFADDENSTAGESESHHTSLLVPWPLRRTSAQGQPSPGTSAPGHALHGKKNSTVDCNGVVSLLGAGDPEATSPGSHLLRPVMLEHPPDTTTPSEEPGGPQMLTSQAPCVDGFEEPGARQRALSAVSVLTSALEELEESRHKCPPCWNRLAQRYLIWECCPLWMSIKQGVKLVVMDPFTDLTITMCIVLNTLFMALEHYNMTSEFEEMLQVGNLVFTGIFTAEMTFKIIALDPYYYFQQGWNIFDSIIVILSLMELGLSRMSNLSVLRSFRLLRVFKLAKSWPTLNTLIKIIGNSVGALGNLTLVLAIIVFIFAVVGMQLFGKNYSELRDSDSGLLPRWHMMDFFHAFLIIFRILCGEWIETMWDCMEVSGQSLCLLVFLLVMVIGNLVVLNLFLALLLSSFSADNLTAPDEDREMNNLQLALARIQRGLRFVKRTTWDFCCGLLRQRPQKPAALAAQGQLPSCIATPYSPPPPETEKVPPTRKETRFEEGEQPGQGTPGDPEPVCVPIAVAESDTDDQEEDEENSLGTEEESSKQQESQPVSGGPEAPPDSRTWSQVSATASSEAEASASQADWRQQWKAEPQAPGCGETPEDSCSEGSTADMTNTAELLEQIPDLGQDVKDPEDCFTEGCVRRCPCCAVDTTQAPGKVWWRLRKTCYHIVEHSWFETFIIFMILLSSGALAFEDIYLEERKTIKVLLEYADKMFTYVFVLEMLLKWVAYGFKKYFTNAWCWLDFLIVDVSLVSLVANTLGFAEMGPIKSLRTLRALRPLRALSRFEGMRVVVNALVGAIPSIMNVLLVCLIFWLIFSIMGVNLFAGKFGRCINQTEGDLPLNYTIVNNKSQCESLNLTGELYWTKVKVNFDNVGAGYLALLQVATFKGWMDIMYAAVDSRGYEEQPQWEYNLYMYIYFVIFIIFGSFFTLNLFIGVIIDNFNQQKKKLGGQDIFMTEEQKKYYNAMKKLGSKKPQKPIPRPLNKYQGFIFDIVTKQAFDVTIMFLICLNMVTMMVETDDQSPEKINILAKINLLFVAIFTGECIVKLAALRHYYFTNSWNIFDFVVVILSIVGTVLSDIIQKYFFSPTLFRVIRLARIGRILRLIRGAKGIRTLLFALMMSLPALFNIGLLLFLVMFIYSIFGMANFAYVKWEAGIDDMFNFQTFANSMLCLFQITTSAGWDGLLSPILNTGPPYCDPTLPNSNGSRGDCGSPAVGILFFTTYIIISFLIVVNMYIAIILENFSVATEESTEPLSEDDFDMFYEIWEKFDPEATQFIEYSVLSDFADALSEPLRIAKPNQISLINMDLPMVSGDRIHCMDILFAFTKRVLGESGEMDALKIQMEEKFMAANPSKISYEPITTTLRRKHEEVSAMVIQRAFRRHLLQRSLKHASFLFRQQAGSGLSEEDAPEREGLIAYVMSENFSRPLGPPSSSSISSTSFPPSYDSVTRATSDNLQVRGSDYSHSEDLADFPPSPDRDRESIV
Chain of Cytochrome P450 2C19 (P33261 whole entry): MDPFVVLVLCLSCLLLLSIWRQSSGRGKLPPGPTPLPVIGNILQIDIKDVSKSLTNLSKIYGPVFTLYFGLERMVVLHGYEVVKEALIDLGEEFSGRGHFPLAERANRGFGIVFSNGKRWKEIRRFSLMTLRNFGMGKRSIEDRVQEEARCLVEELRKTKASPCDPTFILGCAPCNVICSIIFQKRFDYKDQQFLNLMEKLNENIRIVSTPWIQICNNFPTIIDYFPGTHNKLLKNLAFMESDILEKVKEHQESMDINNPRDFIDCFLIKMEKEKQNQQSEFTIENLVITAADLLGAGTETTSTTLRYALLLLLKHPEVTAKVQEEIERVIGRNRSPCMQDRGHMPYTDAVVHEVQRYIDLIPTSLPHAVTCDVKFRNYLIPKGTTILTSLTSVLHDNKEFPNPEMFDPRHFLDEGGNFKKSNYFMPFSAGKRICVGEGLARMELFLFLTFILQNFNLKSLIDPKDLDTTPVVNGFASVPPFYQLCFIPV

IC50 (Cytochrome P450 2C19): > 30 µM
microsomal CLint at 2 h, 1 µM (in vitro [1]): < 6.4 µL/min/mg
Drug metabolism [2]: Metabolite_Notdetected
Vd [3]: 0.87 L/kg
hepatocyte CLint at 2 h, 1 µM (in vitro [4]): < 0.96 µL/min/1e6 cells
IC50 (Cytochrome P450 3A4 [5]): > 10 µM
IC50 (Cytochrome P450 3A4 [6]): > 30 µM
Drug metabolism [7]: Metabolite_Notdetected
IC50 (Cytochrome P450 2D6 [8]): > 10 µM
clearance [9]: 2.52 mL/min/kg
Drug metabolism [10]: Metabolite_Notdetected
MRT last at 24 h [11]: 4.61 h
remaining at 4 h, 10 µM [12]: 98.5%
Papp A→B at 2 h, 10 µM (in vitro [13]): 3.64 ×10⁻⁶ cm/s
remaining at 4 h, 10 µM [14]: 97.8%
IC50 (Cytochrome P450 2D6 [15]): > 30 µM
Tmax [16]: 2.33 h
concentration at 24 h (in vivo [17]): 50100 ng/g
concentration at 24 h (in vivo [18]): 1490 ng/g
hepatocyte CLint at 2 h, 1 µM (in vitro [19]): < 0.96 µL/min/1e6 cells
Drug metabolism [20]: Metabolite_Notdetected
AUC [21]: 5580 ng·h/mL
activity at 30 µM (PXR): 0.96%
half-life [22]: 5.1 h
Drug metabolism [23]: Metabolite_Notdetected
AUCt [24]: 39900 ng·h/mL
IC50 (Cytochrome P450 1A2): > 10 µM
SMILES: C[C@H]1CCN1c1nc(N2CC[C@H](CCC(=O)O)C2)c2c(n1)C(F)(F)CC2
inhibition (Rattus norvegicus): Active
IC50 [25]: > 30 µM
